Data taken from ChEMBL document CHEMBL1201862, “PubChem BioAssay data set” (2004).
Calls of active or inactive are those of the source.

Columns and labels:
[1] = tested on: Danio rerio; assay: In Vivo Angiogenesis Dose-Response Confirmation. [Related pubchem assays: 732 (Assay preceding this confirmatory assay.)]; format: functional, organism-based
[2] = microbe, parasite or virus in culture; format: functional; conditions: Mycobacterium tuberculosis
[3] = HEK-293T viability loss, compound-treated – cell-based, uHTS hits, cytotoxicity control for B/T-cell NF-kB inhibitor project, dose response (AID 489019); format: functional;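 further: IC50 reflects cytotoxicity as loss of cell viability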
[4] = tested on: P388; assay: cells; format: functional; conditions: Mus musculus
[5] = target: T1, Eukaryotic translation initiation factor 2-alpha kinase 3 (Homo sapiens, UniProt Q9NZJ5); assay: Counterscreen assay for PERK inhibitors: Dose response cell-based high throughput screening assay to measure inhibition of PERK at 6 hours. [Related pubchem assays: 1522, 1416 ]; format: functional
T1 sequence (Q9NZJ5 whole entry): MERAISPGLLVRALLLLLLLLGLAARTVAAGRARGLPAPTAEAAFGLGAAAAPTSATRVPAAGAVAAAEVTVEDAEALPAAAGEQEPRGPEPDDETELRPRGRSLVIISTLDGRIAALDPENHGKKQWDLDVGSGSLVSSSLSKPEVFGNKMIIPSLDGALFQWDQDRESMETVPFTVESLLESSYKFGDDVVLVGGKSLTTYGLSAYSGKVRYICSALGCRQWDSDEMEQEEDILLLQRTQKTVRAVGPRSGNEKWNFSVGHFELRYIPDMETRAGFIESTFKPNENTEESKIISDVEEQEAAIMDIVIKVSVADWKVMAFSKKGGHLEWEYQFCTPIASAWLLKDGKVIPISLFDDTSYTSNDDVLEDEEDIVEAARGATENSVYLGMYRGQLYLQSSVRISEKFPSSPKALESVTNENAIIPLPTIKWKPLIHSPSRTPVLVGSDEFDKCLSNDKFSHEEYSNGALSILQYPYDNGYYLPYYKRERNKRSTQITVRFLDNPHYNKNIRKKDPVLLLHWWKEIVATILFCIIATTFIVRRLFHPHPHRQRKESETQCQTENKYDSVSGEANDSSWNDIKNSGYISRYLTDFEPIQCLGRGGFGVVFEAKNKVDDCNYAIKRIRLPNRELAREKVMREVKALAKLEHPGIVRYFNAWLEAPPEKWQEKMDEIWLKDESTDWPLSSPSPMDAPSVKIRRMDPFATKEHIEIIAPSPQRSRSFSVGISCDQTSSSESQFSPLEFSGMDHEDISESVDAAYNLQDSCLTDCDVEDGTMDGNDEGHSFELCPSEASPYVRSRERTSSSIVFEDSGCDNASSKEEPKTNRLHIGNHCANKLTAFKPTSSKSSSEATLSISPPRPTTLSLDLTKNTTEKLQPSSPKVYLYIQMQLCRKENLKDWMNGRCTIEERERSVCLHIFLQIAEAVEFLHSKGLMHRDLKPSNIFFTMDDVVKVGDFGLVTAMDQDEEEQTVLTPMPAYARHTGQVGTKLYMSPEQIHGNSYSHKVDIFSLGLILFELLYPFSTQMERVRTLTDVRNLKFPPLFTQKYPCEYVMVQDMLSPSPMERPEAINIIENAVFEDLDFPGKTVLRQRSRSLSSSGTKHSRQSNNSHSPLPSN

[6] = target: T1, Eukaryotic translation initiation factor 2-alpha kinase 3; assay: Dose response cell-based high-throughput screening assay to measure PERK inhibition. [Related pubchem assays: 1416 ]; format: functional
[7] = tested on: P388/ADR; assay: cells; format: functional; conditions: Mus musculus
[8] = THP-1 cell cytotoxicity, dose response, cytotoxicity control for non-replicating M. tuberculosis project (AID 489025); format: functional
[9] = HepG2 cell cytotoxicity, dose response, cytotoxicity control for non-replicating M. tuberculosis project (AID 489018); format: functional; conditions: Mycobacterium tuberculosis
[10] = reduced cellular PGC1a acetyl-lysine signal – cell-based, cherry-picked samples, dose response (AID 720514); format: functional;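 further: potency may reflect raised or lowered acetylation signal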
[11] = cells; format: functional
[12] = tested on: SN12K1; assay: cells; format: functional; conditions: Homo sapiens
[13] = Vero E6 cell cytotoxicity, dose response, cytotoxicity control for non-replicating M. tuberculosis project, secondary assay (AID 492998); format: functional, VeroE6; conditions: Vero C1008
[14] = tested on: Jurkat; assay: blockers of NF-kB activation in T cells – Jurkat, luciferase reporter, luminescence, B- and T-cell, dose response (AID 489004); format: functional, cell-based; conditions: Homo sapiens;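 further: NF-kB luciferase reporter Jurkat cells stimulated with PMA plus ionomycin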
[15] = target: Transthyretin (Homo sapiens, UniProt P02766); assay: Luminescence-based cell-based high throughput dose response assay to identify activators of Transthyretin (TTR) transcription.; format: functional
[16] = P. falciparum Dd2 growth inhibitors, dose response, SYBR Green, cherry-picked samples (AID 1159567); format: functional, cell-based
[17] = toxicity to human hepatoma HepG2 cells – cell-based, cherry-picked samples, cytotoxicity control, dose response (AID 1159577); format: functional
[18] = toxicity to human HepG2 hepatoma cells – cell-based, plate reader, dry powder samples, cytotoxicity control, dose response (AID 1159569); format: functional;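 further: inhibitor potency with signal falling toward the positive control level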
[19] = Dd2 parasite growth inhibition in erythrocytes – SYBR Green, dry powder samples, set 9, dose response (AID 1159568); format: functional, cell-based
[20] = growth inhibition of yeast DHODH-expressing 3D7 parasites – SYBR Green, dry powder samples, dose response (AID 1159570); format: functional, cell-based;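 further: parasite growth measured after 72 hours of compound exposure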
[21] = growth inhibition of PfATP4-mutant resistant parasites – NITD609-resistant line, SYBR Green, dry powder, dose response (AID 1159571); format: functional, cell-based;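 further: parasites synchronized at ring stage by sorbitol before testing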
[22] = Dd2 malaria parasite growth inhibition potency – SYBR Green, dry powder samples, dose response (AID 1159566); format: functional, cell-based;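 further: potency for growth inhibition with lower SYBR green DNA signal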
[23] = Plasmodium falciparum Dd2 Sybr green parasite growth Measured in Cell-Based and Microorganism Combination System Using Plate Reader - 2153-01_Inhibitor_Dose_DryPowder_Activity_Set3.; format: functional
[24] = target: G-protein coupled receptor 183 (Homo sapiens, UniProt P32249); assay: SAR confirmation of small molecule antagonists of the EBI2 receptor via a luminescent beta-arrestin assa.; format: functional
[25] = loss of A549 viability via ATP – cell-based, plate reader, dry powder, set 7, cytotoxicity control, dose response (AID 743318); format: functional
[26] = Reduced DLD-1 viability, concentration-response, CellTiter-Glo luminescence (AID 1117352); format: functional
[27] = cytotoxicity toward Colo320 cells – cell-based, CellTiter-Glo luminescence, IC50, dose response (AID 1117334); format: functional; conditions: COLO 320
[28] = CellTiter-Glo luminescence survival assay, SW480 colon tumor line, concentration-response curve, half-maximal inhibitory concentration (AID 1117338); format: functional
[29] = cytotoxicity toward HT-29 cells – cell-based, CellTiter-Glo luminescence, IC50, dose response (AID 1117330); format: functional
[30] = RKO cell viability reduction, dose response, CellTiter-Glo luminescence (AID 1117322); format: functional
[31] = cytotoxicity toward HCT116 cells – cell-based, CellTiter-Glo luminescence, IC50, dose response (AID 1117332); format: functional; conditions: HCT-116
[32] = HCT116 cell viability decrease, GSK3B pretreatment – CellTiter-Glo, IC50, dose response (AID 1117339); format: functional; conditions: HCT-116
[33] = SNU-C1 cell viability reduction, dose response, CellTiter-Glo luminescence (AID 1117323); format: functional, cell-based
[34] = IC50 of insulin release inhibition, rat insulinoma INS-1E line, 5 mM glucose, cell-based (AID 1117331); format: functional

Chain of G-protein coupled receptor 183 (P32249 whole entry): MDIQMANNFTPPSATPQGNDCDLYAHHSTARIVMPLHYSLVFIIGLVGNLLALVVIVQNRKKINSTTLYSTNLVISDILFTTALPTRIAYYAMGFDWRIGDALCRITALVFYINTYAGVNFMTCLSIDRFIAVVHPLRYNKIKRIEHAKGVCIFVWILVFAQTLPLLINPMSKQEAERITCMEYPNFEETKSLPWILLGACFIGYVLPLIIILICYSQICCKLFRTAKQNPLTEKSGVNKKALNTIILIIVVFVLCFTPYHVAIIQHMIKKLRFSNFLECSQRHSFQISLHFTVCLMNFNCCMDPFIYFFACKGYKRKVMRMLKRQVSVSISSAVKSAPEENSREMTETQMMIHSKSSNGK

## O=C1Nc2ccc(F)cc2/C1=C1/Nc2ccccc2/C1=N\OCCN1CCNCC1
[1]
  IC50: 13.1 µM (not active)

## COc1cccc2c1C(CO)N1C(C#N)C3CC(C(=O)O)C(C1C2)N3C (stereo not given)
[2]
  CC50: 0.194 µM (active)
[3]
  IC50: > 80 µM (inactive)
[4]
  GI50: 0.416 µM (active)
[5]
  EC50: > 55.7 µM (not active)
[6]
  EC50: > 55.7 µM (not active)
[7]
  GI50: < 0.0384 µM (active)
[8]
  CC50: 0.153 µM (active)
[9]
  CC50: 0.925 µM (active)
[10]
  AC50: 20.1 µM (active)
[11]
  IC50: 2.76 µM (active)
[12]
  GI50: 0.243 µM (active)
[13]
  CC50: 0.33 µM (active)
[14]
  IC50: 0.34 µM (active)

## Cc1cc(C)n(CC(=O)n2c(C)c(C)c3ccccc32)n1
[15]
  EC50: > 167 µM (inactive)

## O=C(Nc1ccc2c(c1)OCO2)N1C[C@@H]2N[C@H](C1)[C@@H]2c1ccc(C=Cc2ccccc2)cc1
[16]
  AC50: 5.46 µM (active)
[17]
  AC50: 11.2 µM (active)

## CO[C@@H]1CN(C)C(=O)c2ccc(NC(=O)NC(C)C)cc2OC[C@@H](C)N(Cc2ccccc2)C[C@H]1C
[18]
  AC50: > 100 µM (inactive)
[19]
  AC50: 0.493 µM (active)
[20]
  AC50: 5.13 µM (active)
[21]
  AC50: 1.9 µM (active)
[22]
  AC50: 0.299 µM (active)
[23]
  AC50: 1.4 µM (active)
[16]
  AC50: 1.78 µM (active)

## O=C(/C=C/c1ccc(F)cc1)N1CCN(S(=O)(=O)c2ccc3ccccc3c2)CC1
[24]
  IC50: 0.0212 µM (active)

## Cc1cccc(OCCn2c(=S)[nH]c3cc(C(F)(F)F)ccc32)c1
[25]
  AC50: 36 µM (active)

## Cc1c(O)cc2c(c1C)O[C@](C)(CCC[C@H](C)CCC[C@H](C)CCCC(C)C)CC2
[26]
  IC50: > 20 µM (inactive)
[27]
  IC50: > 20 µM (inactive)
[28]
  IC50: > 20 µM (inactive)
[29]
  IC50: > 20 µM (inactive)
[30]
  IC50: > 20 µM (inactive)
[31]
  IC50: > 20 µM (inactive)
[32]
  IC50: > 20 µM (inactive)
[33]
  IC50: > 20 µM (inactive)

## Cc1ccc(O)c([C@H](CCN(C(C)C)C(C)C)c2ccccc2)c1 [TOLTERODINE]
[34]
  IC50: > 33.3 µM (inactive)
